Reference: ChEMBL document CHEMBL5325456, “5-(4-Hydroxyphenyl)-3H-1,2-dithiole-3-thione derivatives of brefeldin A: Design, synthesis and cytotoxicity in MDA-MB-231 human breast cancer cells” (Bioorg Med Chem, 2023)

Experiments:
HeLa = assay: Antiproliferative activity against human HeLa cells assessed as reduction in cell viability incubated for 48 hrs by CCk-8 assay; assay type: functional, cell-based
[1] = Antiproliferative activity against human L02 cells assessed as reduction in cell viability incubated for 48 hrs by CCk-8 assay; assay type: toxicity, cell-based
MDA-MB-231 [2] = assay: Induction of cell cycle arrest in human MDA-MB-231 cells assessed as accumulation of cells at G1 phase at 82.5 nM incubated for 48 hrs by flow cytometry analysis (reference value: 47.44 %); assay type: functional
MDA-MB-231 [3] = assay: Induction of cell cycle arrest in human MDA-MB-231 cells assessed as accumulation of cells at G1 phase at 0.165 uM incubated for 48 hrs by flow cytometry analysis (reference value: 47.44 %); assay type: functional
MDA-MB-231 [4] = assay: Induction of cell cycle arrest in human MDA-MB-231 cells assessed as accumulation of cells at G2 phase at 0.165 uM incubated for 48 hrs by flow cytometry analysis (reference value: 16.05 %); assay type: functional
MDA-MB-231 [5] = assay: Induction of apoptosis in human MDA-MB-231 cells assessed as viable cells at 0.165 uM incubated for 48 hrs by Annexin-V/FITC-PI staining based flow cytometry analysis (reference value: 93.74 %); assay type: functional; settings: read-out: Activity
MDA-MB-231 [6] = assay: Induction of apoptosis in human MDA-MB-231 cells assessed as late apoptotic cells at 0.165 uM incubated for 48 hrs by Annexin-V/FITC-PI staining based flow cytometry analysis (reference value: 2.34 %); assay type: functional
Cell membrane = assay: Induction of mitochondrial membrane potential loss in human MDA-MB-231 cells assessed as proportion of MMP decreased cells at 0.33 uM and measured for 48 hrs by JC-1 staining based flow cytometry assay (reference value: 4.40%); assay type: subcellular; set-up: scale not given: the % may be the effect or the level left
MDA-MB-231 [7] = assay: Inhibition of cell migration in human MDA-MB-231 cells assessed as wound healing rate at 82.5 nM measured immediately by scratch wound healing assay (Rvb= 871.53 +/- 3.02 %); assay type: functional; set-up: scale not given: the % may be the effect or the level left
MDA-MB-231 [8] = assay: Inhibition of cell migration in human MDA-MB-231 cells assessed as wound healing rate at 0.33 uM measured immediately by scratch wound healing assay (Rvb= 871.53 +/- 3.02 %); assay type: functional; set-up: scale not given: the % may be the effect or the level left
MDA-MB-231 [9] = assay: Inhibition of cell migration in human MDA-MB-231 cells assessed as wound healing rate at 0.165 uM measured for 24 hrs by scratch wound healing assay (Rvb= 230.22 +/- 32.21 %); assay type: functional; set-up: scale not given: the % may be the effect or the level left

IC50 (HeLa): 850 nM | Activity (Cell membrane): 49.8%
Compound: C[C@H]1CCC/C=C/[C@@H]2C[C@H](O)C[C@H]2[C@H](OC(=O)CCCC(=O)OCCOc2ccc(-c3cc(=S)ss3)cc2)/C=C/C(=O)O1
IC50 at 48 h [1]: 1750 nM | Activity (MDA-MB-231 [2]): 56.27% | Activity (MDA-MB-231 [3]): 60.09% | Activity (MDA-MB-231 [4]): 9.52% | viability at 0.165 µM (MDA-MB-231 [5]): 71.7% | Activity (MDA-MB-231 [6]): 16.31% | Activity (MDA-MB-231 [7]): 832.33% | Activity (MDA-MB-231 [8]): 844.92% | Activity (MDA-MB-231 [9]): 465.92%
